Earlier results in patent publication US7632519B2, “TRPV1 agonist compounds, formulations, prodrugs, methods for using the same” (NeurogesX, Inc., priority 2005, dated 2009).

Conditions: oral dose levels of up to 2 mg/kg, humans

In the case of COc1cc(CNC(=O)CCCC/C=C/C(C)C)ccc1O [capsaicin], the “adverse effects after oral dosing” value is listed as “without reported adverse effects”.
